Results published in patent publication US7323541B2, “Polypeptide DNA thereof and use of the same” (Takeda Pharmaceutical Company Limited, priority 2001, dated 2008).
Where a chain is given by its changes, count along the chain named. Where no end group is shown, it is not given here.

Key:
Experiment in all cases: Intracellular Ca ion concentration increasing activity using FLIPR
Assay type in all cases: cell-based
[1] = target: T1, rat TGR23-1 expressing CHO cells (Rattus norvegicus, UniProt P0C0L6, DEL160-160)
T1 construct: The rat TGR23-1 expressing vector was constructed by digestion of plasmid pCR2.1-rTGR23-1 with Sal I and Spe I; expressed in transfected cells; host or cells: CHO dhfr- cells, pAKKO-rTGR23-1, clone No. 34
T1 sequence (P0C0L6 with tags, fused parts or gaps DEL160-160): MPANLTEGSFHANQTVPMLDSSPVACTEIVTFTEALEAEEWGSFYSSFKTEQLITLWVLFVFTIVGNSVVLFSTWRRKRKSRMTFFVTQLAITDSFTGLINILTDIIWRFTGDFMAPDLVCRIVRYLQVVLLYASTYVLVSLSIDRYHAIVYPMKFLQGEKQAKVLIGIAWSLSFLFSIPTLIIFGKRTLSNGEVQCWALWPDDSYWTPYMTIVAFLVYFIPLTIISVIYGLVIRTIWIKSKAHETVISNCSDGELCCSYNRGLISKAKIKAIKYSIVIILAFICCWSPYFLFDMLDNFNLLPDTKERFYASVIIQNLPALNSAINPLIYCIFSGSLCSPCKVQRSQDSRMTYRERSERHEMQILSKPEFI
Description: (§1) An enhancing activity of intracellular Ca^2+ release was assayed using FLIPR (Molecular Devices, Inc.). The CHO/TGR23-2 cells prepared in Example 1 and selected in Example 2 were plated on 96-well plate at 3×10^4 cells/well and cultured for 24 hours. A loading buffer was prepared by adding 1 vial of Fluo 3-AM to 10 ml of Hanks' solution (pH7.4) containing 2.5 mM Probenecid and 20 mM HEPES (hereafter, Hanks' solution (pH7.4) containing 2.5 mM Probenecid and 20 mM HEPES may be referred to as a washing buffer). The culture medium was discarded from the culture plate and 100 μl/well of the loading buffer were added to the cells. Then, the cells were incubated for 60 minutes in the incubator. After the loading buffer was removed from the culture plate and the cells were washed with the washing buffer, the plate was put in place of FLIPR. A sample was prepared by adding a sample buffer, which 2 mg/ml BSA and 1 mg/ml CHAPS were added to the washing buffer, to lyophilized product, stirring and treating by ultrasonication for 30 minutes, and transferred to 96-well sample plate. This sample plate was also put in place for assay. The enhancing activity of intracellular Ca^2+ release was measured as an increase of fluorescent intensity, which is raised by addition of the sample.
(§2) The rat TGR23-2 ligand (1-18) having various concentrations was administered in accordance with the method described in Example 5, to the CHO cells, in which rat TGR23-1 and rat TGR23-5 are expressed. Subsequently, the intracellular Ca ion concentration increasing activity was measured using FLIPR.

[2] = target: T2, rat TGR23-5 expressing CHO cells (Rattus norvegicus, UniProt P0C0L6)
T2 construct: expressed in transfected cells; host or cells: CHO dhfr- cells, pAKKO-rTGR23-5, clone No. 29
T2 sequence (P0C0L6 1-372): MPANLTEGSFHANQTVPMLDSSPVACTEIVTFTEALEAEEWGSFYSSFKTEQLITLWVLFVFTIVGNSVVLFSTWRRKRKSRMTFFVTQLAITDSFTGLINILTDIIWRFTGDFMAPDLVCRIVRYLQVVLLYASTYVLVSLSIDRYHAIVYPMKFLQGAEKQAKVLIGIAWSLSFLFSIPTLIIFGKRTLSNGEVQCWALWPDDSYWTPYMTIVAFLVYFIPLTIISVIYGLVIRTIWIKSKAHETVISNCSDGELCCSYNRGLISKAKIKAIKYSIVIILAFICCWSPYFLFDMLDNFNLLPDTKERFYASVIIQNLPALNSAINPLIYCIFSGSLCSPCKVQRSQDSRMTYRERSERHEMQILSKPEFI
Description: as §1, §2

[3] = target: T3, human TGR23-1B expressing CHO cells (Homo sapiens, UniProt Q6W5P4, N107I/S241R)
T3 construct: expressed in transfected cells; host or cells: CHO dhfr- cells, pAKKO-TGR23-1B, clone No. 59
T3 sequence (Q6W5P4 1-371 N107I/S241R): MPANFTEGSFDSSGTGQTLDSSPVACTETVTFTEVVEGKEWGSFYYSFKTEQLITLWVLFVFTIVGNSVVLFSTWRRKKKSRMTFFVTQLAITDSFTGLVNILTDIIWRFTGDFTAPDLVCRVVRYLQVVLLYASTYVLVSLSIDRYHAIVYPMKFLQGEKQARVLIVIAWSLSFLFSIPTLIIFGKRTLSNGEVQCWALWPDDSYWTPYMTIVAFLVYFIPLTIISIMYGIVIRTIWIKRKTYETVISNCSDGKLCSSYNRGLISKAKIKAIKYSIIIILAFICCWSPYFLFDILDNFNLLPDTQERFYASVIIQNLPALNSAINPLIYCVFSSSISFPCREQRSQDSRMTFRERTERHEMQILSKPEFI
Description: as §1
(§3) The human TGR23-2 ligand (1-20) having various concentrations was administered in accordance with the method described in Example 5, to the CHO cells, in which human TGR23-1A, human TGR23-1B, human TGR23-1C and human TGR23-1D are expressed. Subsequently, the intracellular Ca ion concentration increasing activity was measured using FLIPR.

[4] = target: T4, human TGR23-1D expressing CHO cells (Homo sapiens, UniProt Q6W5P4, Q344R)
T4 construct: expressed in transfected cells; host or cells: CHO dhfr- cells, pAKKO-TGR23-1D, clone No. 12
T4 sequence (Q6W5P4 1-371 Q344R): T3 sequence (Q6W5P4 1-371 N107I/S241R) with I107N, R241S, Q344R
Description: as §1, §3

Row | Sequence | intracellular Ca ion concentration increasing activity ([1]; rat TGR23-1 expressing CHO cells) | EC50 ([1]; rat TGR23-1 expressing cells, calculated from graph FIG. 27) [nM] | intracellular Ca ion concentration increasing activity ([2]; rat TGR23-5 expressing CHO cells) | EC50 ([2]; rat TGR23-5 expressing cells, calculated from graph FIG. 28) [nM] | intracellular Ca ion concentration increasing activity [3] | intracellular Ca ion concentration increasing activity [4]
1 | SFRNGVGSGVKKTSFRRA [rat TGR23-2 ligand (1-18), Ser-Phe-Arg-Asn-Gly-Val-Gly-Ser-Gly-Val-Lys-Lys-Thr-Ser-Phe-Arg-Arg-Ala] | the intracellular Ca ion level increased depending on the concentration of this ligand | 0.19 | the intracellular Ca ion level increased depending on the concentration of this ligand | 14 |  | 
2 | SFRNGVGTGMKKTSFQRAKS [human TGR23-2 ligand (1-20)] |  |  |  |  | the intracellular Ca ion level increased depending on the concentration of this ligand | the intracellular Ca ion level increased depending on the concentration of this ligand
